From patent publication US20060127400A1, “Activation of regulatory T cells by alpha-melanocyte stimulating hormone” (THE SCHEPENS EYE RESEARCH INSTITUTE, INC., priority 1999, published 2006)
No end group written: not given here.

Key:
CD25+ CD4+ T cells = test: two-color flow cytometry for CD4 and CD25 on activated primed T cells; type: cell-based, mouse; conditions: TCR-stimulated in the presence or absence of α-MSH 30 pg/ml, 24 hours
Description: In another example, for immunostaining and fluorescence-activated cell sorting, T cells (2×10^6 cells) from 24 hour cultures of the α-MSH-treated activated T cells were centrifuged and washed once in PBS/BSA buffer (10 mM PBS, 3% BSA). The cells were resuspended in 50 μl of PBS/BSA buffer containing 2 μg of PE-conjugated anti-CD4 and FITC-conjugated anti-CD25 antibodies and incubated for 30 minutes room temperature. The cells were centrifuged, resuspended in 1 ml of PBS/BSA buffer, and washed two times. The stained cells were sorted by a Coulter ELITE cell sorter calibrated for two color fluorescence. The cells were sorted into two populations, CD25^+ CD4^+ cells and the remaining cells (all CD4^− cells plus CD25^−CD4^+ cells). The sorted cells were used immediately in the in vitro regulatory T cell assay.
α-MSH induced CD25^+ CD4^+ regulatory T cells. To characterize the regulatory T cells induced by α-MSH, we assayed through flow cytometry the possibility that α-MSH induces CD25^+ (IL-2Rα) CD4^+ regulatory T cells. […] The cells were analyzed by two-color flow cytometry after staining with anti-CD4 and anti-CD25. Presented is a representative dot plot of the flow cytometry seen in four separate staining experiments. (B) Only T cells activated in the presence of α-MSH, were stained and sorted based on the coexpression of CD4 and CD25. […]

[1] = tested on: experimental autoimmune uveitis; test: EAU, α-MSH injected i.v. at the time of peak retinal inflammation; type: in vivo, mouse
EAU = conditions: direct injections into eyes of mice; cited from earlier work
CD3ζ = test: tyrosine phosphorylation of CD3ζ, immunoprecipitation and anti-phosphotyrosine immunoblot; type: cell-based, mouse
Description: (§1) Immunoprecipitation and Immunoblotting. Enriched primed T cells (2×10^6 cells) in a 24 well Corning plate were TCR-stimulated with 2C11 in the presence of α-MSH (30 pg/ml) under serum-free conditions for 15 minutes. The T cells were collected, placed in a microcentrifuge tube and washed once with 10 mM Tris buffered saline (TBS) and lysed for 30 minutes in 100 μl of ice cold lysate buffer (10 mM TBS, 1% NP-40, 0.5% sodium deoxycholate, 0.1% SDS, 100 μg/ml phenylmethylsulfonyl fluoride (PMSF), 60 μg/ml Aprotinin, and 1 mM sodium orthovanadate). The cells were passed through a 21 gauge needles three times, and an additional 2 μl of 10 mg/ml PMSF was added. The tubes were incubated for an additional 30 minutes on ice and were centrifuged for 20 minutes, 4° C., 13,000×g. The supernatant was collected and used as total cellular lysate. The protein concentration was measured, and added to equal amounts of protein lysate were 20 μg/ml anti-CD3ζ antibody, or anti-CD3ε antibody plus rabbit anti-hamster IgG antibody and incubated overnight at 4° C. The rabbit anti-hamster IgG was needed for the CD3ε immunoprecipitation, since much of the CD3ε was bound by 2C11 a hamster anti-mouse […] and hamster antibody weakly binds protein-G. Protein-G sepharose beads (Pharmacia, Piscataway, N.J.) were added to the antibody containing lysates and incubated for 1 hour at room temperature with end over end agitation. The beads were centrifuged and washed 4 times with 10 mM TBS containing 0.5% sodium deoxycholate. After the final wash the beads were resuspended in 20 μl of distilled water and 20 μl non-reducing SDS Tris-glycine sample buffer (Novex, San Diego, Calif.), boiled for 5 minutes and applied into two wells (20 μl) of a 8-16% Tris-glycine polyacrylamide gel (Novex).
Following electrophoresis in a Novex Xcell II minicell and blot module, the proteins were transferred from the gel onto a nitrocellulose membrane (Novex) by electroblotting. The membrane was blocked with 1% BSA in 0.01 M TBS for 1 hour room temperature. The blocked membrane was placed in a sealable bag containing 5 ml of alkaline-phosphatase conjugated anti-phosphotyrosine antibody PY20 diluted 1/2000 in 1% BSA-TBS buffer. The membrane was incubated overnight at room temperature. The PY20 blotted membrane was washed 3 times with wash buffer containing 1% BSA-TBS and 0.05% Tween-20 and incubated with alkaline phosphatase substrate NBT-BCIP (Sigma Chemical) until bands appeared. The membrane was washed with distilled water. In parallel, some lanes on the membrane were immunoblotted with anti-CD3ζ antibody and alkaline phosphatase conjugated anti-mouse IgG (Sigma Chemical) to detect the relative mobility of CD3ζ protein. Membranes were digitally photographed and analyzed using NIH Image software to integrate the band intensities relative to band area minus background. […]
(§2) The enriched primed T cells (2×10^6 cells) were incubated with anti-CD3 in the presence of α-MSH (30 pg/ml) for 15 minutes. […] The immunoprecipitates were analyzed by non-reducing SDS-PAGE (on a 8-16% gradient gel), followed by transfer to a nitrocellulose filter and immunoblotting with anti-phosphotyrosine antibody: (1) Unstimulated primed T cells treated with α-MSH; (2) Unstimulated primed T cells incubated in media alone; (3) Enriched primed T cells TCR-stimulated in the absence of α-MSH; (4) Enriched primed T cells TCR-stimulated in the presence of α-MSH. […]

CD3ε = test: tyrosine phosphorylation of CD3ε, immunoprecipitation and anti-phosphotyrosine immunoblot; type: cell-based, mouse
Description: as §1
Following electrophoresis in a Novex Xcell II minicell and blot module, the proteins were transferred from the gel onto a nitrocellulose membrane (Novex) by electroblotting. The membrane was blocked with 1% BSA in 0.01 M TBS for 1 hour room temperature. […] Membranes were digitally photographed and analyzed using NIH Image software to integrate the band intensities relative to band area minus background. […]
as §2

[2] = TCR-stimulated primed T cells, α-MSH 30 pg/ml, 15 minutes (lane 4; without α-MSH 10)
[3] = TCR-stimulated primed T cells, α-MSH 30 pg/ml, 15 minutes, Example III (FIG. 18A)
[4] = unstimulated primed T cells, α-MSH 30 pg/ml, 15 minutes (lane 1; media alone 1)

α-melanocyte stimulating hormone (SYSMEHFRWGKPV; not fully specified; ends and bridges not checked; UniProt P01189 138-150, looked up) [α-MSH, synthetic α-MSH (Peninsula Laboratories); thirteen-amino acid neuropeptide derived from POMC]
percentage of CD25+ CD4+ cells (CD25+ CD4+ T cells): did not change | severity of experimental autoimmune uveitis (EAU) [1]: significantly suppressed | severity of inflammation and recovery in EAU (EAU): suppress the severity of the inflammation and accelerate recovery | increase in CD3ζ tyrosine phosphorylation (CD3ζ; TCR-stimulated primed T cells, versus stimulated in the absence of α-MSH): 6.7 fold | relative intensity of phosphotyrosine band, CD3ζ (CD3ζ; [2]): 67 | overall level of tyrosine phosphorylation of CD3ζ (CD3ζ; [3]): no significant change | stimulation of tyrosine phosphorylation of CD3ζ dimers (CD3ζ; unstimulated primed T cells): 4 fold | relative intensity of phosphotyrosine band, CD3ζ (CD3ζ; [4]): 4 | level of tyrosine phosphorylation of CD3ε chains (CD3ε; TCR-stimulated and unstimulated primed T cells, Example I (FIG. 7B)): no effect | relative intensity of phosphotyrosine band, CD3ε (CD3ε; [2]): 10 | overall level of tyrosine phosphorylation of CD3ε (CD3ε; [3]): no significant change | relative intensity of phosphotyrosine band, CD3ε (CD3ε; [4]): 1
